The values that follow come from PubChem BioAssay (NCI).

Some test systems named below: A549 NSCLC; CAKI-1 renal; COLO 205 colon; HCT-116 colon; HCT-15 colon; HOP-62 NSCLC; IGROV1 ovarian; K-562 leukemia; LOX IMVI melanoma; MALME-3M melanoma; MOLT-4 leukemia; PC-3 prostate; SK-OV-3 ovarian; TK-10 renal; UACC-62 melanoma; UO-31 renal; OVCAR-4 ovarian; MCF7 breast; HCC-2998 colon.
Common to all, as to experiment: growth of human tumour cells (NCI), 48 h

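1) Cells in 96-well plates. 2) Compound, 48 h, 5 concentrations. 3) Linear interpolation between surrounding doses. 4) Unreached endpoint = highest concentration. TGI marks complete inhibition of growth.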

Turning to `CC1=NNC(=O)C1C1CC(c2c[nH]c3ccccc23)=NN(C(N)=O)C1=O` (centres undefined), the TGI in the assay with A549 NSCLC, with CAKI-1 renal, in the assay on COLO 205 colon, in the assay with HCT-116 colon, in the assay with HCT-15 colon and in the assay on HOP-62 NSCLC was > 100 µM in each case. Moreover, the TGI with IGROV1 ovarian, with K-562 leukemia, in the assay with LOX IMVI melanoma, with MALME-3M melanoma, in the assay with MOLT-4 leukemia and in the assay with PC-3 prostate was > 100 µM throughout. Moreover, the TGI in the assay on SK-OV-3 ovarian, in the assay on TK-10 renal, in the assay on UACC-62 melanoma and in the assay with UO-31 renal was > 100 µM each time.

Consider `O=C1CC2(CCC3=C(O2)c2ccccc2NC(=O)C3)C(=O)c2ccccc2N1` (centres undefined), for which the TGI with A549 NSCLC, with COLO 205 colon, with HCT-116 colon, with HCT-15 colon, with HOP-62 NSCLC and in the assay with IGROV1 ovarian was > 100 µM each time. Moreover, the TGI in the assay with K-562 leukemia, in the assay on LOX IMVI melanoma, in the assay on MALME-3M melanoma, in the assay on MOLT-4 leukemia, with OVCAR-4 ovarian and with TK-10 renal was > 100 µM each time. For the same molecule, the TGI in the assay with UACC-62 melanoma and with UO-31 renal was > 100 µM throughout.

Take `CC1CC/C(=C\c2ccc(N(C)C)cc2)C2=C1C(c1ccc(N(C)C)cc1)NC(=S)N2` (centres undefined): the TGI in the assay on CAKI-1 renal, in the assay on COLO 205 colon, in the assay on HCT-116 colon, in the assay with HCT-15 colon, with IGROV1 ovarian and with K-562 leukemia was > 100 µM each time. Moreover, the TGI with LOX IMVI melanoma, in the assay on MALME-3M melanoma, in the assay on MCF7 breast, in the assay on MOLT-4 leukemia, in the assay with PC-3 prostate and in the assay with SK-OV-3 ovarian was > 100 µM each time. Also, the TGI in the assay with TK-10 renal, with UACC-62 melanoma and in the assay with UO-31 renal was > 100 µM each time.

On to `O=c1c2ccccc2nc2n1-c1ccccc1SC2`, for which the TGI in the assay on A549 NSCLC, in the assay with CAKI-1 renal, in the assay on COLO 205 colon, with HCC-2998 colon, in the assay with HCT-116 colon and in the assay with HCT-15 colon was > 100 µM each time. Besides, the TGI is > 100 µM in the assay with HOP-62 NSCLC; > 100 µM in the assay on IGROV1 ovarian; > 100 µM with K-562 leukemia; > 100 µM in the assay with LOX IMVI melanoma; > 100 µM in the assay with MALME-3M melanoma; 75.3 µM with MOLT-4 leukemia. For the same molecule, the TGI with OVCAR-4 ovarian, with SK-OV-3 ovarian, in the assay with TK-10 renal, in the assay on UACC-62 melanoma and with UO-31 renal was > 100 µM each time.

For the molecule `O=C1C=CC2(C=C1)CCNC1=C2C(=O)c2ccccc2C1=O`, the TGI in the assay with A549 NSCLC, in the assay with COLO 205 colon, in the assay on HCC-2998 colon, with HCT-116 colon, in the assay with HCT-15 colon and with HOP-62 NSCLC was > 100 µM in each case. In addition, the TGI with IGROV1 ovarian, in the assay on K-562 leukemia, in the assay with LOX IMVI melanoma, in the assay with MALME-3M melanoma, in the assay with MOLT-4 leukemia and in the assay on OVCAR-4 ovarian was > 100 µM throughout. For the same molecule, the TGI with SK-OV-3 ovarian, with TK-10 renal, in the assay on UACC-62 melanoma and in the assay with UO-31 renal was > 100 µM each time.

For the molecule `O=C1NC(=O)C(C(=O)C(=O)Nc2ccc(Cl)cc2Cl)C(=O)N1`, the TGI with A549 NSCLC, in the assay with CAKI-1 renal, with COLO 205 colon, in the assay with HCC-2998 colon, with HCT-116 colon and in the assay with HCT-15 colon was > 100 µM each time. The TGI in the assay on HOP-62 NSCLC, with IGROV1 ovarian, in the assay on K-562 leukemia, with MALME-3M melanoma, in the assay on MOLT-4 leukemia and in the assay on OVCAR-4 ovarian was > 100 µM each time. The TGI with SK-OV-3 ovarian, in the assay with TK-10 renal, in the assay with UACC-62 melanoma and with UO-31 renal was > 100 µM throughout.

For `O=C(c1nc2ccccc2[nH]c1=O)C(O)c1ccco1` (centres undefined), the TGI in the assay on A549 NSCLC, in the assay with COLO 205 colon, in the assay with HCC-2998 colon, in the assay with HCT-116 colon, in the assay on HCT-15 colon and with HOP-62 NSCLC was > 100 µM throughout. The TGI in the assay with IGROV1 ovarian, with K-562 leukemia, with LOX IMVI melanoma, in the assay on MALME-3M melanoma, in the assay on MOLT-4 leukemia and in the assay on OVCAR-4 ovarian was > 100 µM throughout. Moreover, the TGI in the assay with SK-OV-3 ovarian, with TK-10 renal, with UACC-62 melanoma and in the assay on UO-31 renal was > 100 µM each time.

For `N#Cc1ccc(N2CCOCC2)cc1`, the TGI in the assay with A549 NSCLC, in the assay on CAKI-1 renal, in the assay with COLO 205 colon, in the assay with HCT-116 colon, in the assay on HCT-15 colon and in the assay with HOP-62 NSCLC was > 100 µM each time. Also, the TGI in the assay on IGROV1 ovarian, in the assay on LOX IMVI melanoma, with MCF7 breast, with MOLT-4 leukemia, in the assay on OVCAR-4 ovarian and in the assay with PC-3 prostate was > 100 µM throughout. Besides, the TGI in the assay with SK-OV-3 ovarian, in the assay with TK-10 renal, with UACC-62 melanoma and in the assay on UO-31 renal was > 100 µM each time.

Consider `O=c1/c(=C/c2ccc([N+](=O)[O-])o2)sc2n1[C@@H](c1ccc(Cl)cc1)C=C(c1cc(F)c(Cl)cc1Cl)N=2`, for which the TGI with A549 NSCLC is 86.9 µM; in the assay on CAKI-1 renal, > 100 µM; in the assay on COLO 205 colon, 16.2 µM; with HCT-116 colon, 18.3 µM; in the assay with HCT-15 colon, 26.7 µM; with HOP-62 NSCLC, 30.6 µM. The TGI came out at 31.7 µM with IGROV1 ovarian; 36.9 µM in the assay with K-562 leukemia; 33.6 µM with LOX IMVI melanoma; 33.9 µM with MALME-3M melanoma; 32.2 µM in the assay on MCF7 breast; 45.9 µM in the assay on MOLT-4 leukemia. The TGI in the assay on OVCAR-4 ovarian is 30.8 µM; in the assay on PC-3 prostate it was 32.7 µM; with SK-OV-3 ovarian, 50.8 µM; in the assay with TK-10 renal, 36.2 µM; with UACC-62 melanoma it was 29.2 µM; in the assay with UO-31 renal it was 32.5 µM.

Regarding `C=CCN1COc2c(cc3c4c(cccc24)C(=O)O3)C1`, the TGI was > 100 µM in the assay with A549 NSCLC; 49.3 µM in the assay with CAKI-1 renal; 33.1 µM in the assay with COLO 205 colon; > 100 µM in the assay on HCC-2998 colon; 36.7 µM in the assay on HCT-116 colon; 50 µM in the assay with HCT-15 colon. Also, the TGI in the assay on HOP-62 NSCLC was > 100 µM; with IGROV1 ovarian it was > 100 µM; in the assay on K-562 leukemia, 68.6 µM; in the assay with LOX IMVI melanoma, > 10 µM; with MALME-3M melanoma it was > 10 µM; with MOLT-4 leukemia it was 64.9 µM. For the same molecule, the TGI in the assay with OVCAR-4 ovarian is > 100 µM; in the assay on SK-OV-3 ovarian, > 100 µM; in the assay with TK-10 renal it was 39 µM; in the assay with UACC-62 melanoma, 36.8 µM; in the assay with UO-31 renal it was 40.8 µM.

Turning to `O=C(CCCN1CCC2(CC1)CC(=O)N(N1CCOCC1)C2=O)c1ccc(F)cc1`, the TGI with A549 NSCLC, in the assay on CAKI-1 renal, with COLO 205 colon, in the assay on HCT-116 colon, in the assay with HCT-15 colon and with HOP-62 NSCLC was > 100 µM throughout. Besides, the TGI with IGROV1 ovarian, in the assay on K-562 leukemia, in the assay with LOX IMVI melanoma, in the assay on MALME-3M melanoma, with MCF7 breast and in the assay with MOLT-4 leukemia was > 100 µM in each case. Besides, the TGI with PC-3 prostate, in the assay on SK-OV-3 ovarian, in the assay with TK-10 renal, in the assay with UACC-62 melanoma and in the assay on UO-31 renal was > 100 µM in each case.

With `C/C(CC(=O)Nc1cc(C)ccc1C)=N/N=C(N)N`, the TGI in the assay with A549 NSCLC, in the assay with COLO 205 colon, in the assay with HCC-2998 colon, in the assay with HCT-116 colon, in the assay on HOP-62 NSCLC and with IGROV1 ovarian was > 100 µM in each case. The TGI in the assay with K-562 leukemia, in the assay with LOX IMVI melanoma, in the assay on MALME-3M melanoma, in the assay with MOLT-4 leukemia, in the assay with SK-OV-3 ovarian and in the assay on TK-10 renal was > 100 µM each time. Besides, the TGI with UACC-62 melanoma and with UO-31 renal was > 100 µM each time.

As for `O=C1/C(=C/c2ccco2)N=C2Sc3c(nc[nH]c3=O)N12`, the TGI in the assay on A549 NSCLC, in the assay with CAKI-1 renal, in the assay with COLO 205 colon, with HCT-116 colon, in the assay on HCT-15 colon and in the assay with HOP-62 NSCLC was > 100 µM throughout. The TGI in the assay with IGROV1 ovarian, in the assay with K-562 leukemia, with LOX IMVI melanoma, in the assay with MALME-3M melanoma, with MCF7 breast and with MOLT-4 leukemia was > 100 µM each time. In addition, the TGI in the assay on OVCAR-4 ovarian, in the assay with PC-3 prostate, in the assay on SK-OV-3 ovarian, in the assay with TK-10 renal and in the assay with UO-31 renal was > 100 µM throughout.
